The numbers were not newly measured in article PMC4128785 (Molecular Pharmaceutics, 2014), which cites them from elsewhere.

For this data set the following is noted: Sc(III) complex of DOTA.

SMILES strings stand for the structures.

As to `O=C(O)CN1CCN(CC(=O)O)CCN(CC(=O)O)CCN(CC(=O)O)CC1` [DOTA, 1,4,7,10-tetraazacyclododecane-N,N′,N″,N‴-tetraacetic acid], the “thermodynamic stability (−log K)” value is 27.0.
